{"source": "patent US20220062240A1", "about": "“METHODS OF TREATING CANCER USING A CLK INHIBITOR” (BioSplice Therapeutics, Inc., priority 2018, published 2022)", "key": {"[1]": {"system": "pancreatic cancer (8 cell lines)", "test": "CellTiter-Glo Viability Assay, pancreatic cancer", "type": "cell-based", "conditions": "Homo sapiens, inhibition of cancer cell proliferation"}, "[2]": {"system": "lung cancer (4 cell lines)", "test": "CellTiter-Glo Viability Assay, lung cancer", "type": "cell-based", "conditions": "Homo sapiens, inhibition of cancer cell proliferation"}, "[3]": {"system": "colorectal cancer (6 cell lines)", "test": "CellTiter-Glo Viability Assay, colorectal cancer", "type": "cell-based", "conditions": "Homo sapiens, inhibition of cancer cell proliferation"}, "[4]": {"biological_target": "T1, CLK2 (Homo sapiens, UniProt P49760)", "T1 construct": "purchased Thermo Fisher (Life Technologies), Z'-LYTE Kinase Assay Kits", "test": "CLK2 kinase activity assay (Z-lyte, Ser/Thr 6 peptide)", "type": "biochemical", "conditions": "recombinant CLK2 kinase, ATP 60 μM; read-out: EC50", "description": "All reactions were performed in duplicate."}, "[5]": {"system": "liver cancer (3 cell lines)", "test": "CellTiter-Glo Viability Assay, liver cancer", "type": "cell-based", "conditions": "Homo sapiens, inhibition of cancer cell proliferation"}, "[6]": {"system": "prostate cancer (5 cell lines)", "test": "CellTiter-Glo Viability Assay, prostate cancer", "type": "cell-based", "conditions": "Homo sapiens"}, "[7]": {"system": "haematopoietic & lymphoid tumors (13 cell lines)", "test": "CellTiter-Glo Viability Assay, haematopoietic & lymphoid tumors", "type": "cell-based", "conditions": "Homo sapiens, inhibition of cancer cell proliferation"}, "[8]": {"system": "all 50 cell lines", "test": "CellTiter-Glo Viability Assay, average across all cell lines", "type": "cell-based", "conditions": "Homo sapiens; across all 50 cell lines; read-out: average EC50 for inhibition of cancer cell proliferation", "in_short": "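Cells were plated at 300-3,000 per well in their own media, then treated with compound in duplicate, with DMSO wells as controls. After four days at 37° C and 5% CO2, CellTiter-Glo was added, and luminescence was read. EC50s were fitted.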"}, "[9]": {"system": "ovarian cancer (4 cell lines)", "test": "CellTiter-Glo Viability Assay, ovarian cancer", "type": "cell-based", "conditions": "Homo sapiens, inhibition of cancer cell proliferation"}, "[10]": {"system": "HCC1599", "test": "CellTiter-Glo Viability Assay, breast cancer", "type": "cell-based", "conditions": "Homo sapiens, 96 h; HCC1599, breast cancer, four days; read-out: EC50"}, "[11]": {"system": "CAMA1", "test": "CellTiter-Glo Viability Assay, breast cancer", "type": "cell-based", "conditions": "Homo sapiens, CAMA-1, 96 h; CAMA1, breast cancer, four days; read-out: EC50"}, "[12]": {"system": "T47D", "test": "CellTiter-Glo Viability Assay, breast cancer", "type": "cell-based", "conditions": "Homo sapiens, 96 h, breast cancer, four days, read-out: EC50"}, "[13]": {"system": "ZR-75-1", "test": "CellTiter-Glo Viability Assay, breast cancer", "type": "cell-based", "conditions": "Homo sapiens, 96 h; ZR-75-1, breast cancer, four days; read-out: EC50"}, "[14]": {"system": "BT-549", "test": "CellTiter-Glo Viability Assay, breast cancer", "type": "cell-based", "conditions": "Homo sapiens, 96 h; BT-549, breast cancer, four days; read-out: EC50"}, "[15]": {"system": "MCF7", "test": "CellTiter-Glo Viability Assay, breast cancer", "type": "cell-based", "conditions": "Homo sapiens, 96 h; MCF7, breast cancer, four days; read-out: EC50"}, "[16]": {"system": "DU4475", "test": "CellTiter-Glo Viability Assay, breast cancer", "type": "cell-based", "conditions": "Homo sapiens, DU-4475, 96 h; DU4475, breast cancer, four days; read-out: EC50"}, "[17]": {"system": "MDA-MB-231-Luc", "test": "CellTiter-Glo Viability Assay, breast cancer", "type": "cell-based", "conditions": "Homo sapiens, 96 h; MDA-MB-231-Luc, breast cancer, four days; read-out: EC50"}, "[18]": {"biological_target": "CLK3 (Homo sapiens, UniProt P49761)", "sequence (P49761 whole entry)": "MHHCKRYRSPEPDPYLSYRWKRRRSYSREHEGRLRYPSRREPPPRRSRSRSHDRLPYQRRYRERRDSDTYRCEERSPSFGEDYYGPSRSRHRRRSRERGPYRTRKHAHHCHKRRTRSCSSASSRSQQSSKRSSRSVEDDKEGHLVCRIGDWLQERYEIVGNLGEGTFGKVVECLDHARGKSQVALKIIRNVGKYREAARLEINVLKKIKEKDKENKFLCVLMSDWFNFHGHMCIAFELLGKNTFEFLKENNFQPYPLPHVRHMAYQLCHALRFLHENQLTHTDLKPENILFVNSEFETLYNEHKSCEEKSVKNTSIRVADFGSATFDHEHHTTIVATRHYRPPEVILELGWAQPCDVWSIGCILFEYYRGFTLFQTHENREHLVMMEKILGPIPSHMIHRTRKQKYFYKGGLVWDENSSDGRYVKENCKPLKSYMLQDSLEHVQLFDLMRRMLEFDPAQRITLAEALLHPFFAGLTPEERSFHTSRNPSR", "test": "CLK3 kinase activity assay (Z-lyte, Ser/Thr 18 peptide)"}}, "note": "Read-outs that look alike come from different tables or passages of the source."}
{"smiles": "CN1CC=C(c2cc(C(=O)Nc3cc4cc(-c5cncc(NC(C)(C)C)n5)cnc4cn3)ccn2)CC1", "note": "[Compound 86]", "values": [{"measurement": "EC50", "setting": "[1]; BXPC-3, BxPC3 cell line, read-out: Pancreatic cancer, EC50 BxPC3", "value": 1710, "unit": "nM"}, {"measurement": "EC50", "setting": "[1]; CAPAN-1, Capan1 cell line, read-out: Pancreatic cancer, EC50 Capan1", "value": 1890, "unit": "nM"}, {"measurement": "EC50", "setting": "[1]; Capan-2, Capan2 cell line, read-out: Pancreatic cancer, EC50 Capan2", "value": 2630, "unit": "nM"}, {"measurement": "EC50", "setting": "[1]; MIA PaCa-2 cell line, read-out: Pancreatic cancer, EC50 MIA PaCa-2", "value": 1010, "unit": "nM"}, {"measurement": "EC50", "setting": "[1]; PANC 05.04 cell line, read-out: Pancreatic cancer, EC50 PANC 05.04", "value": 2890, "unit": "nM"}, {"measurement": "EC50", "setting": "[1]; PANC-1 cell line, read-out: Pancreatic cancer, EC50 PANC-1", "value": 5420, "unit": "nM"}, {"measurement": "EC50", "setting": "[1]; UPAFII cell line, read-out: Pancreatic cancer, EC50 UPAFII", "value": 983, "unit": "nM"}, {"measurement": "EC50", "setting": "[2]; A-427, A427 cell line, read-out: Lung cancer, EC50 (μM) A427", "value": 1.5, "unit": "µM"}, {"measurement": "EC50", "setting": "[2]; HCC78, HCC-78 cell line, read-out: Lung cancer, EC50 (μM) HCC-78", "value": 6.86, "unit": "µM"}, {"measurement": "EC50", "setting": "[2]; NCI-H460 cell line, read-out: Lung cancer, EC50 (μM) NCI-H460", "value": 2.72, "unit": "µM"}, {"measurement": "EC50", "setting": "[2]; NCI-H522 cell line, read-out: Lung cancer, EC50 (μM) NCI-H522", "value": 0.895, "unit": "µM"}, {"measurement": "EC50", "setting": "[3]; HCT-116, HCT116 cell line, read-out: Colorectal cancer, EC50 (μM) HCT116", "value": 0.718, "unit": "µM"}, {"measurement": "EC50", "setting": "[3]; HT-29, HT29 cell line, read-out: Colorectal cancer, EC50 (μM) HT29", "value": 1.17, "unit": "µM"}, {"measurement": "EC50", "setting": "[3]; SW-620, SW620 cell line, read-out: Colorectal cancer, EC50 (μM) SW620", "value": 0.49, "unit": "µM"}, {"measurement": "EC50", "setting": "[3]; DLD-1 cell line, read-out: Colorectal cancer, EC50 (μM) DLD-1", "value": 0.848, "unit": "µM"}, {"measurement": "EC50", "setting": "[3]; SW48 cell line, read-out: Colorectal cancer, EC50 (μM) SW48", "value": 0.454, "unit": "µM"}, {"measurement": "EC50", "setting": "[3]; SW480 cell line, read-out: Colorectal cancer, EC50 (μM) SW480", "value": 1.46, "unit": "µM"}, {"measurement": "EC50", "setting": "[4]", "value": 4.7, "unit": "nM"}, {"measurement": "EC50", "setting": "[5]; SNU-398, SNU398 cell line, read-out: Liver cancer, EC50 SNU398", "value": 459, "unit": "nM"}, {"measurement": "EC50", "setting": "[5]; HEPG2 cell line, read-out: Liver cancer, EC50 HEPG2", "value": 3860, "unit": "nM"}, {"measurement": "EC50", "setting": "[5]; PLC/PRF/5 cell line, read-out: Liver cancer, EC50 PLC/PRF/5", "value": "> 10000", "unit": "nM"}, {"measurement": "EC50", "setting": "[6]; DU-145, read-out: Prostate cancer EC50 Du-145", "value": 2690, "unit": "nM"}, {"measurement": "EC50", "setting": "[6]; PC-3, PC3 cell line, inhibition of cancer cell proliferation, read-out: Prostate cancer EC50 PC3", "value": 3350, "unit": "nM"}, {"measurement": "EC50", "setting": "[6]; 22Rv1 cell line, inhibition of cancer cell proliferation, read-out: Prostate cancer EC50 22Rv1", "value": 1210, "unit": "nM"}, {"measurement": "EC50", "setting": "[6]; LNCap clone FGC cell line, inhibition of cancer cell proliferation, read-out: Prostate cancer EC50 LNCap clone FGC", "value": 5330, "unit": "nM"}, {"measurement": "EC50", "setting": "[6]; VCaP (Sigma) cell line, inhibition of cancer cell proliferation, read-out: Prostate cancer EC50 VCaP (Sigma)", "value": 2250, "unit": "nM"}, {"measurement": "EC50", "setting": "[7]; DND41, DND-41 cell line, read-out: Haematopoietic & Lymphoid tumors, EC50 (μM) DND-41", "value": 1.37, "unit": "µM"}, {"measurement": "EC50", "setting": "[7]; MV4-11, MV-4-11 cell line, read-out: Haematopoietic & Lymphoid tumors, EC50 (μM) MV-4-11", "value": 0.292, "unit": "µM"}, {"measurement": "EC50", "setting": "[7]; Rec1, REC-1 cell line, read-out: Haematopoietic & Lymphoid tumors, EC50 (μM) REC-1", "value": 0.663, "unit": "µM"}, {"measurement": "EC50", "setting": "[7]; SU-DHL-4, SUDHL4 cell line, read-out: Haematopoietic & Lymphoid tumors, EC50 (μM) SUDHL4", "value": 1.11, "unit": "µM"}, {"measurement": "EC50", "setting": "[7]; HL-60 cell line, read-out: Haematopoietic & Lymphoid tumors, EC50 (μM) HL-60", "value": 2.85, "unit": "µM"}, {"measurement": "EC50", "setting": "[7]; JM1 cell line, read-out: Haematopoietic & Lymphoid tumors, EC50 (μM) JM1", "value": 0.645, "unit": "µM"}, {"measurement": "EC50", "setting": "[7]; JURKAT, Clone E6-1 cell line, read-out: Haematopoietic & Lymphoid tumors, EC50 (μM) JURKAT, Clone E6-1", "value": 2.14, "unit": "µM"}, {"measurement": "EC50", "setting": "[7]; JeKo-1 cell line, read-out: Haematopoietic & Lymphoid tumors, EC50 (μM) JeKo-1", "value": 0.884, "unit": "µM"}, {"measurement": "EC50", "setting": "[7]; KASUMI-1 cell line, read-out: Haematopoietic & Lymphoid tumors, EC50 (μM) KASUMI-1", "value": 1.22, "unit": "µM"}, {"measurement": "EC50", "setting": "[7]; Loucy cell line, read-out: Haematopoietic & Lymphoid tumors, EC50 (μM) Loucy", "value": 1.07, "unit": "µM"}, {"measurement": "EC50", "setting": "[7]; MOLT-4 cell line, read-out: Haematopoietic & Lymphoid tumors, EC50 (μM) MOLT-4", "value": 1.46, "unit": "µM"}, {"measurement": "EC50", "setting": "[7]; TF-1 cell line, read-out: Haematopoietic & Lymphoid tumors, EC50 (μM) TF-1", "value": 2.11, "unit": "µM"}, {"measurement": "EC50", "setting": "[7]; TOLEDO cell line, read-out: Haematopoietic & Lymphoid tumors, EC50 (μM) TOLEDO", "value": 0.811, "unit": "µM"}, {"measurement": "EC50", "setting": "[8]", "value": 2710, "unit": "nM"}, {"measurement": "EC50", "setting": "[9]; PA-1, PA1 cell line, read-out: Ovarian cancer, EC50 (μM) PA1", "value": 1.25, "unit": "µM"}, {"measurement": "EC50", "setting": "[9]; TOV112D, TOV-112D cell line, read-out: Ovarian cancer, EC50 (μM) TOV-112D", "value": 1.23, "unit": "µM"}, {"measurement": "EC50", "setting": "[9]; OV-90 cell line, read-out: Ovarian cancer, EC50 (μM) OV-90", "value": 6.93, "unit": "µM"}, {"measurement": "EC50", "setting": "[9]; OVCAR-3 cell line, read-out: Ovarian cancer, EC50 (μM) OVCAR-3", "value": 1.2, "unit": "µM"}, {"measurement": "EC50", "setting": "[10]", "value": "> 10000", "unit": "nM"}, {"measurement": "EC50", "setting": "[11]", "value": 2130, "unit": "nM"}, {"measurement": "EC50", "setting": "[12]", "value": "> 10000", "unit": "nM"}, {"measurement": "EC50", "setting": "[13]", "value": 4180, "unit": "nM"}, {"measurement": "EC50", "setting": "[14]", "value": 2890, "unit": "nM"}, {"measurement": "EC50", "setting": "[15]", "value": "> 10000", "unit": "nM"}, {"measurement": "EC50", "setting": "[16]", "value": 2500, "unit": "nM"}, {"measurement": "EC50", "setting": "[17]", "value": 3790, "unit": "nM"}, {"measurement": "EC50", "setting": "[18]", "value": 11.5, "unit": "nM"}]}
